# Source: patent US12257247B2 (Monte Rosa Therapeutics AG, priority 2023, dated 2025)
# Where two headings read alike, the source gives them in different places.
# Molecular target: T1, VAV1 (Homo sapiens, UniProt P15498+Q96SW2)
# T1 construct: A heterozygous VAV1 C-terminal HiBiT knock-in pool was generated at Monte Rosa Therapeutics from a clonal Jurkat cell; endogenous in cells; host or cells: Jurkat clone stably expressing LgBiT, homozygous GSPT1-G575N; heterozygous VAV1-HiBiT knock-in pool
# Assay: VAV1 degradation activity, VAV1-HiBiT knock-in Jurkat luminescence assay (Example A, Table 1)
# Type: cell-based
# Conditions: VAV1-HiBiT knock-in Jurkat cells, luminescence read at 6 and 24 hours; for Dmax: Jurkat
# Procedure, shortened: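 Luminescence was measured at 6 and 24 h after adding compound (10 μM stock) to VAV1-HiBiT knock-in Jurkat cells, which had been pre-incubated ~16 h at 37° C. in RPMI/10% FBS containing Endurazine. EC50 values came from control-normalised responses fitted to a 3-parameter logistic model with hillslope fixed at 1.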
# [1] = read-out: VAV1 DC50 (nM), class
SMILES,Dmax (read-out: VAV1 Dmax %) [%],"Dmax (read-out: VAV1 Dmax %, class) [%]",DC50 (read-out: VAV1 DC50) [nM],DC50 [1] [nM],"VAV1 Dmax %, class",VAV1 Dmax % [%]
O=C1CCC(c2cccc(-c3ccc(CN4CCN5CCCC5C4=O)cc3)c2Cl)C(=O)N1 (stereo not drawn) [Compound 261],84.8,60 to 90,101,100 to 1000,,
O=C1CCC(c2cccc(-c3ccc(CN4C(=O)CCCC4C(F)(F)F)cc3)c2Cl)C(=O)N1 (stereo not drawn) [Compound 262],90.2,> 90,32.6,≤ 100,,
CC1(C)COCC(=O)N1Cc1ccc(-c2cccc(C3CCC(=O)NC3=O)c2Cl)cc1 (stereo not drawn) [Compound 263],87.5,60 to 90,29.3,≤ 100,,
O=C1CCC(c2cccc(-c3ccc(CN4C(=O)COCC45CC5)cc3)c2Cl)C(=O)N1 (stereo not drawn) [Compound 264],84.6,60 to 90,39.5,≤ 100,,
C[C@H]1COCC(=O)N1Cc1ccc(-c2cccc(C3CCC(=O)NC3=O)c2Cl)cc1 (stereo partly drawn) [Compound 265],88,60 to 90,32.5,≤ 100,,
CC1CCC(F)(F)C(=O)N1Cc1ccc(-c2cccc(C3CCC(=O)NC3=O)c2Cl)cc1 (stereo not drawn) [Compound 266],93.2,> 90,14.1,≤ 100,,
CC1CN(Cc2ccc(-c3cccc(C4CCC(=O)NC4=O)c3Cl)cc2)C(=O)C(C)O1 (stereo not drawn) [Compound 267],96.4,> 90,11.5,≤ 100,,
CC1(C)CN(c2cccc(-c3ccc(CC4CCC(=O)NC4=O)cc3Cl)c2)C(=O)CO1 (stereo not drawn) [Compound 268],94.5,,12.8,≤ 100,A (A represents a Dmax % >90%),
O=C1CCC(c2cccc(-c3ccc(CN4CC5(F)CC(C5)C4=O)cc3)c2Cl)C(=O)N1 (stereo not drawn) [Compound 269],96.9,> 90,6.83,≤ 100,,
O=C1CCC(c2cccc(-c3cccc(CC4CCC(F)C(=O)N4)c3)c2Cl)C(=O)N1 (stereo not drawn) [Compound 270],89.6,60 to 90,31.3,≤ 100,,
COC1CCCC(=O)N1Cc1ccc(-c2cccc(C3CCC(=O)NC3=O)c2Cl)cc1 (stereo not drawn) [Compound 271],83.8,60 to 90,50.9,≤ 100,,
Cn1ccc2c1C(=O)N(Cc1ccc(-c3cccc(C4CCC(=O)NC4=O)c3Cl)cc1)CC2 (stereo not drawn) [Compound 272],96.8,> 90,13.6,≤ 100,,
O=C1CCC(c2cccc(-c3ccc(CN4CCn5cncc5C4=O)cc3)c2Cl)C(=O)N1 (stereo not drawn) [Compound 273],78,60 to 90,118,100 to 1000,,
O=C1CCC(c2cccc(-c3ccc(CN4CCn5ccnc5C4=O)cc3)c2Cl)C(=O)N1 (stereo not drawn) [Compound 274],69.5,60 to 90,269,100 to 1000,,
O=C1CCC(c2cccc(-c3ccc(CN4CCn5nccc5C4=O)cc3)c2Cl)C(=O)N1 (stereo not drawn) [Compound 275],87.6,60 to 90,37.2,≤ 100,,
O=C1CCC(c2cccc(-c3ccc(CN4Cc5nccn5CC4=O)cc3)c2Cl)C(=O)N1 (stereo not drawn) [Compound 276],88.6,60 to 90,47.6,≤ 100,,
CN1CCN(Cc2ccc(-c3cccc(C4CCC(=O)NC4=O)c3Cl)cc2)C(=O)C1 (stereo not drawn) [Compound 277],76.8,60 to 90,647,100 to 1000,,
O=C1CCC(c2cccc(-c3ccc(CN4C(=O)CC45CCOCC5)cc3)c2Cl)C(=O)N1 (stereo not drawn) [Compound 278],95.9,> 90,5.33,≤ 100,,
O=C1CCC(c2cccc(-c3ccc(CN4C(=O)CC45CCC5)cc3)c2Cl)C(=O)N1 (stereo not drawn) [Compound 279],98.5,> 90,4.83,≤ 100,,

# More lines, now with the values ahead:
Dmax (read-out: VAV1 Dmax %) [%],"Dmax (read-out: VAV1 Dmax %, class) [%]",DC50 (read-out: VAV1 DC50) [nM],DC50 [1] [nM],"VAV1 Dmax %, class",VAV1 Dmax % [%],SMILES
,,44.9,≤ 100,B (B represents Dmax % >60% and <=90%),83.31,CC1(C)CN(c2cccc(-c3ccc(CC4CCC(=O)NC4=O)cc3Cl)c2)C(=O)CO1 (stereo not drawn) [Compound 280]
98,> 90,3.88,≤ 100,,,O=C1CCC(c2cccc(-c3ccc(CN4CC5CCCC5C4=O)cc3)c2Cl)C(=O)N1 (stereo not drawn) [Compound 282]
93.3,> 90,11.1,≤ 100,,,O=C1CCC(c2cccc(-c3ccc(CN4CCC5CC5C4=O)cc3)c2Cl)C(=O)N1 (stereo not drawn) [Compound 283]
98,> 90,3.48,≤ 100,,,CC1(C)CCC(=O)N(Cc2ccc(-c3cccc(C4CCC(=O)NC4=O)c3Cl)cc2)C1 (stereo not drawn) [Compound 284]
95.2,> 90,10.2,≤ 100,,,CC1(C)CCN(Cc2ccc(-c3cccc(C4CCC(=O)NC4=O)c3Cl)cc2)C(=O)C1 (stereo not drawn) [Compound 285]
94,> 90,15.9,≤ 100,,,CC1CCN(Cc2ccc(-c3cccc(C4CCC(=O)NC4=O)c3Cl)cc2)C(=O)C1 (stereo not drawn) [Compound 286]
95.5,> 90,12.5,≤ 100,,,CC1CCCN(Cc2ccc(-c3cccc(C4CCC(=O)NC4=O)c3Cl)cc2)C1=O (stereo not drawn) [Compound 287]
96.7,> 90,6.09,≤ 100,,,CC1CCC(=O)N(Cc2ccc(-c3cccc(C4CCC(=O)NC4=O)c3Cl)cc2)C1 (stereo not drawn) [Compound 288]
86.7,60 to 90,43.3,≤ 100,,,O=C1CCC(c2cccc(-c3ccc(CN4CCC(F)C4=O)cc3)c2Cl)C(=O)N1 (stereo not drawn) [Compound 289]
92.9,> 90,16.9,≤ 100,,,CC1CCN(Cc2ccc(-c3cccc(C4CCC(=O)NC4=O)c3Cl)cc2)C1=O (stereo not drawn) [Compound 290]
93.1,> 90,21.3,≤ 100,,,O=C1CCC(c2cccc(-c3ccc(CN4CC5CC5C4=O)cc3)c2Cl)C(=O)N1 (stereo not drawn) [Compound 291]
93.7,> 90,12.7,≤ 100,,,CC1(C)CCCC(=O)N1Cc1ccc(-c2cccc(C3CCC(=O)NC3=O)c2Cl)cc1 (stereo not drawn) [Compound 292]
95.8,> 90,6.99,≤ 100,,,O=C1CCC(c2cccc(-c3ccc(CN4C(=O)CCC45CCC5)cc3)c2Cl)C(=O)N1 (stereo not drawn) [Compound 293]
95.7,> 90,8.3,≤ 100,,,O=C1CCC(c2cccc(-c3ccc(CN4C(=O)CCCC45CC5)cc3)c2Cl)C(=O)N1 (stereo not drawn) [Compound 294]
94.8,> 90,9.84,≤ 100,,,CC1CCCC(=O)N1Cc1ccc(-c2cccc(C3CCC(=O)NC3=O)c2Cl)cc1 (stereo not drawn) [Compound 295]
93.8,> 90,10.1,≤ 100,,,O=C1CCC(c2cccc(-c3ccc(CN4C(=O)CCC45CC5)cc3)c2Cl)C(=O)N1 (stereo not drawn) [Compound 296]
93.5,> 90,13.4,≤ 100,,,CC1CCC(=O)N1Cc1ccc(-c2cccc(C3CCC(=O)NC3=O)c2Cl)cc1 (stereo not drawn) [Compound 297]
